The values that follow come from EPA's ToxRefDB 2.

The structures appear in SMILES notation.

In one data set the test system is rabbit. The note with it: Prenatal developmental toxicity study, dutch, Oral, Gavage/Intubation, dose end: 27 GD.
Another data set relates to mouse. The note with it: Subchronic oral toxicity in rodents, cd1, Feed, dose end: 13 week.
Data set [1] has as its system rat. The note with it: Subchronic oral toxicity in rodents, fischer, Feed, dose end: 13 week, group: systemic, systemic / clinical chemistry / cholesterol / cholesterol + systemic / organ weight / kidney / relative to body weight + systemic / organ ….
For data set [2], the system named is rat. Conditions: Combined chronic toxicity/carcinogenicity; fischer; Oral; Feed; dose end: 25 month; group: systemic; systemic / clinical chemistry / creatinine / creatinine + systemic / clinical chemistry / gamma glutamyl transpeptides (gtp) / gamma ….
Data set [3] concerns rat. The note with it: Subchronic oral toxicity in rodents, sprague dawley, Feed, dose end: 90 day, group: systemic, systemic / organ weight / liver / absolute + systemic / organ weight / liver / relative to body weight + systemic / organ weight / thyroid ….
A further data set deals with dog. The note with it: Chronic toxicity; beagle; Oral; Feed; dose end: 52 week; group: systemic; systemic / clinical chemistry / alkaline phosphatase (alp/alk) / alkaline phosphatase (alp/alk) + systemic / organ weight / liver / absolute….
Data set [4] relates to rat. Conditions: Combined chronic toxicity/carcinogenicity, sprague dawley, Oral, Feed, dose end: 26 month, group: systemic.
Data set [5] concerns rat. Conditions: Prenatal developmental toxicity study, sprague dawley, Oral, Gavage/Intubation, dose end: 15 GD.
Where [6] appears, read: group: developmental, systemic / in life observation / body weight / fetal weight.
[7] abbreviates: group: maternal, reproductive / reproductive performance / aborted / aborted + systemic / in life observation / body weight / body weight gain + systemic / ….
Where [8] appears, read: group: cholinesterase, cholinesterase / cholinesterase / cholinesterase / brain cholinesterase (che).
The mark [9] stands for this setting: group: systemic, systemic / organ weight / liver / absolute + systemic / organ weight / liver / relative to body weight + systemic / organ weight / liver / ….
[10] abbreviates: systemic / pathology microscopic / kidney / nephropathy + systemic / pathology microscopic / liver / degeneration.
Where [11] appears, read: systemic / pathology microscopic / kidney / nephropathy + systemic / pathology microscopic / liver / degeneration + systemic / pathology ….
Where [12] appears, read: group: developmental, developmental / developmental malformation / bone / absent + developmental / developmental malformation / bone / supernumerary.
[13] abbreviates: group: developmental, developmental / developmental malformation / bone / absent + developmental / developmental malformation / bone / supernumerary + systemic / ….
Setting [14] is: group: maternal, systemic / in life observation / body weight / body weight gain.
The mark [15] stands for this setting: group: maternal, systemic / in life observation / body weight / body weight gain + systemic / in life observation / clinical signs / salivation + systemic / ….

Take `CCCCOCN(C(=O)CCl)c1c(CC)cccc1CC` [Butachlor]: the LEL in the data set on rabbit (setting [6]) was 150 mg/kg/day; in the data set on rabbit (setting [7]), 150 mg/kg/day; in the data set on mouse (setting [8]) it was 150 mg/kg/day; with mouse (setting [9]), 150 mg/kg/day; in the data set on rat [1], 58.7 mg/kg/day; in the data set with rat [2] it was 37.1 mg/kg/day. Moreover, the LEL in the data set on rat [3] was determined as 50 mg/kg/day; with dog, 25 mg/kg/day; with rat [4] (setting [11]), 4.5 mg/kg/day. The LOAEL (in general, the lowest dose or exposure tested at which an adverse effect was seen) in the data set with rabbit (setting [6]) was 150 mg/kg/day; in the data set with rabbit (setting [7]) it was 150 mg/kg/day; with mouse (setting [8]), over 900 mg/kg/day; with mouse (setting [9]) it was 150 mg/kg/day; in the data set on rat [1], 58.7 mg/kg/day; in the data set on rat [2], 37.1 mg/kg/day. The values for the lowest observed adverse effect level (LOAEL) with rat [3], in the data set with dog and in the data set on rat [4] (setting [10]) were 50 mg/kg/day, 25 mg/kg/day and 4.5 mg/kg/day, respectively. Moreover, the NEL is 50 mg/kg/day with rabbit (setting [6]); 50 mg/kg/day in the data set on rabbit (setting [7]); under 150 mg/kg/day with mouse (setting [8]); under 150 mg/kg/day in the data set with mouse (setting [9]); 17.5 mg/kg/day in the data set with rat [1]; 3.65 mg/kg/day in the data set on rat [2]. Further, the NEL in the data set on rat [3] was under 50 mg/kg/day; with dog, 5 mg/kg/day; with rat [4] (setting [11]) it was under 4.5 mg/kg/day. The NOAEL (commonly the highest dose or exposure tested at which no adverse effect was seen) with rabbit (setting [6]) is 50 mg/kg/day; in the data set with rabbit (setting [7]), 50 mg/kg/day; with mouse (setting [8]), at least 900 mg/kg/day; in the data set with mouse (setting [9]), under 150 mg/kg/day; in the data set on rat [1], 17.5 mg/kg/day; with rat [2] it was 3.65 mg/kg/day. Besides, the NOAEL in the data set with rat [3] was under 50 mg/kg/day; in the data set on dog, 5 mg/kg/day; in the data set on rat [4] (setting [10]), under 4.5 mg/kg/day.

For the compound `C=C(C)C1CC=C(C)CC1` (centres undefined) [Limonene], in the data set on rat [5] (setting [12]), the LEL was found to be 500 mg/kg/day and the LOAEL was found to be 500 mg/kg/day. In the data set on rat [5] (setting [13]), the NEL was 250 mg/kg/day and the NOAEL is 250 mg/kg/day. In the data set on rat [5] (setting [14]), the LEL was 500 mg/kg/day and the LOAEL is 500 mg/kg/day. In the data set with rat [5] (setting [15]), the NEL is 250 mg/kg/day and the NOAEL is 250 mg/kg/day.
